For 13 compounds, IC50 results are on record in patent US20260022142A1, “MACROCYCLIC IMMUNOMODULATORS” (Bristol-Myers Squibb Company, priority 2022, published 2026).

Bridge positions count the residues as written; N and C are the ends. Square brackets hold non-standard residues; d marks the D form. Peptide text beside a SMILES is read from it. * marks the point of attachment. Phe(4-COOH) = N[C@@H](Cc1ccc(C(=O)O)cc1)C(=O)O; Bip = N[C@@H](Cc1ccc(-c2ccccc2)cc1)C(=O)O; Phe(3-Me) = Cc1cccc(C[C@H](N)C(=O)O)c1; Pro(4R-NH2) = N[C@H]1CN[C@H](C(=O)O)C1; hArg = N=C(N)NCCCC[C@H](N)C(=O)O; 4Pal = N[C@@H](Cc1ccncc1)C(=O)O; Cha = N[C@@H](CC1CCCCC1)C(=O)O; Cit = NC(=O)NCCC[C@H](N)C(=O)O; Carboxymethyl = O=C(O)C*; Orn = NCCC[C@H](N)C(=O)O; Aun = NCCCCCCCCCCC(=O)O; Dab = NCC[C@H](N)C(=O)O; Dap = NC[C@H](N)C(=O)O; AEEA = NCCOCCOCC(=O)O

T1 sequence (Q15116 25-288): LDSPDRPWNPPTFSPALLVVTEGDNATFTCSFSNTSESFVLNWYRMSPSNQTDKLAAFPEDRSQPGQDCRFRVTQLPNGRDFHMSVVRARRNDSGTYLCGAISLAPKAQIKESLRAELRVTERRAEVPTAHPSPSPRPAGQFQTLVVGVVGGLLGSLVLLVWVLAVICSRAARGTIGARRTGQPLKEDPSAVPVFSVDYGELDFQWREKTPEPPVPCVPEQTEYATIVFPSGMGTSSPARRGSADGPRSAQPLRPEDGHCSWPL

The experiment concerns the target T1, PD-1/PD-L1 interaction (PE-labeled human PD-L1-Ig binding to Jurkat cell line over-expressing human PD-1) (Homo sapiens, UniProt Q15116).
T1 construct: expressed in transfected cells; host or cells: Jurkat
The experiment in a line: Jurkat-PD-1 Cell Binding High-Content Screening Assay (CBA). The class given is cell-based. The note with it: Jurkat cell line over-expressing human PD-1; PE-labeled PD-L1-Ig 20 nM final; read-out: Jurkat hPD1-PDL1 IC50. An outline of the steps: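 Human PD-L1-Ig carrying a covalent PE label on its Ig tag serves as the probe, applied at 20 nM final to compound-treated (2 h, 37° C) Jurkat-hPD-1 cells in medium with 10% fetal calf serum. After one hour, fixation and nuclear staining precede high-content image analysis.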
By IC50 is commonly meant the point on the concentration scale where inhibition reaches its midpoint. As to `CC(C)C[C@H]1NC(=O)[C@H](CCCN)NC(=O)[C@H](C(C)C)NC(=O)[C@H](Cc2ccc(-c3ccccc3)cc2)NC(=O)[C@H](C(C)C)NC(=O)[C@H](Cc2c[nH]c3ccccc23)NC(=O)[C@H](CC(=O)O)NC(=O)[C@H](Cc2ccc(OCC(=O)O)cc2)NC(=O)[C@H](Cc2ccncc2)NC(=O)CSC[C@@H](C(=O)NCC(=O)NCCOCCOCC(=O)N[C@@H](CCCN)C(=O)NCCCCCCCCCCC(=O)O)NC(=O)[C@H](CCCNC(N)=O)NC(=O)[C@H](C(C)C)NC(=O)[C@H](CC2CCCCC2)NC(=O)[C@H](CCN)NC1=O` [Compound 3235] ({CH2CO}-[4Pal]Y(Carboxymethyl)DWV[Bip]V[Orn][dL][Dab][Cha]V[Cit]CG[AEEA][Orn][Aun]-OH; thioether N-14), the IC50 is 5.7 nM. Consider `CC(C)C[C@H]1NC(=O)[C@H](CCCN)NC(=O)[C@H](C(C)C)NC(=O)[C@H](Cc2ccc(-c3ccccc3)cc2)NC(=O)[C@H](C(C)C)NC(=O)[C@H](Cc2c[nH]c3ccccc23)NC(=O)[C@H](CC(=O)O)NC(=O)[C@H](Cc2ccc(OCC(=O)O)cc2)NC(=O)[C@H](Cc2ccncc2)NC(=O)CSC[C@@H](C(=O)NCC(=O)NCCOCCOCC(=O)N[C@@H](CCCN)C(=O)NCCCCCCCCCCC(=O)O)NC(=O)[C@H](CCN)NC(=O)[C@H](C(C)C)NC(=O)[C@H](CC2CCCCC2)NC(=O)[C@H](CCN)NC1=O` [Compound 3236] ({CH2CO}-[4Pal]Y(Carboxymethyl)DWV[Bip]V[Orn][dL][Dab][Cha]V[Dab]CG[AEEA][Orn][Aun]-OH; thioether N-14), for which the IC50 is 3.9 nM. For `CC(C)C[C@H]1NC(=O)[C@H](CCCN)NC(=O)[C@H](C(C)C)NC(=O)[C@H](Cc2ccc(-c3ccccc3)cc2)NC(=O)[C@H](C(C)C)NC(=O)[C@H](Cc2c[nH]c3ccccc23)NC(=O)[C@H](CC(=O)O)NC(=O)[C@H](Cc2ccc(OCC(=O)O)cc2)NC(=O)[C@H](Cc2ccncc2)NC(=O)CSC[C@@H](C(=O)NCC(=O)NCCOCCOCC(=O)N[C@@H](CCCN)C(=O)NCCCCCCCCCCC(=O)O)NC(=O)[C@H](CCN)NC(=O)[C@H](C(C)C)NC(=O)[C@H](CC2CCCCC2)NC(=O)[C@@H]2C[C@@H](N)CN2C1=O` [Compound 3237] ({CH2CO}-[4Pal]Y(Carboxymethyl)DWV[Bip]V[Orn][dL][Pro(4R-NH2)][Cha]V[Dab]CG[AEEA][Orn][Aun]-OH; thioether N-14), the half-maximal inhibitory concentration (IC50) was 159 nM. To `CC(C)C[C@H]1NC(=O)[C@H](CCCN)NC(=O)[C@H](C(C)C)NC(=O)[C@H](Cc2ccc(-c3ccccc3)cc2)NC(=O)[C@H](C(C)C)NC(=O)[C@H](Cc2c[nH]c3ccccc23)NC(=O)[C@H](CC(=O)O)NC(=O)[C@H](Cc2ccc(OCC(=O)O)cc2)NC(=O)[C@H](CCCNC(=N)N)NC(=O)CSC[C@@H](C(=O)NCC(=O)NCCOCCOCC(=O)N[C@@H](CCCN)C(=O)NCCCCCCCCCCC(=O)O)NC(=O)[C@H](CN)NC(=O)[C@H](C(C)C)NC(=O)[C@H](CC2CCCCC2)NC(=O)[C@H](CCN)NC1=O` [Compound 3238] ({CH2CO}-RY(Carboxymethyl)DWV[Bip]V[Orn][dL][Dab][Cha]V[Dap]CG[AEEA][Orn][Aun]-OH; thioether N-14) belongs 11.7 nM.

Consider `CC(C)C[C@H]1NC(=O)[C@H](CCCN)NC(=O)[C@H](C(C)C)NC(=O)[C@H](Cc2ccc(-c3ccccc3)cc2)NC(=O)[C@H](C(C)C)NC(=O)[C@H](Cc2c[nH]c3ccccc23)NC(=O)[C@H](CC(=O)O)NC(=O)[C@H](Cc2ccc(C(=O)O)cc2)NC(=O)[C@H](CCCNC(=N)N)NC(=O)CSC[C@@H](C(=O)NCC(=O)NCCOCCOCC(=O)N[C@@H](CCCN)C(=O)NCCCCCCCCCCC(=O)O)NC(=O)[C@H](CN)NC(=O)[C@H](C(C)C)NC(=O)[C@H](CC2CCCCC2)NC(=O)[C@H](CCN)NC1=O` [Compound 3239] ({CH2CO}-R[Phe(4-COOH)]DWV[Bip]V[Orn][dL][Dab][Cha]V[Dap]CG[AEEA][Orn][Aun]-OH; thioether N-14), for which the IC50 was 11.4 nM. Next, `CC(C)C[C@H]1NC(=O)[C@H](CCCN)NC(=O)[C@H](C(C)C)NC(=O)[C@H](Cc2ccc(-c3ccccc3)cc2)NC(=O)[C@H](C(C)C)NC(=O)[C@H](Cc2c[nH]c3ccccc23)NC(=O)[C@H](CC(=O)O)NC(=O)[C@H](Cc2ccc(OCC(=O)O)cc2)NC(=O)[C@H](CCCNC(=N)N)NC(=O)CSC[C@@H](C(=O)NCC(=O)NCCOCCOCC(=O)N[C@@H](CCCN)C(=O)NCCCCCCCCCCC(=O)O)NC(=O)[C@H](CCN)NC(=O)[C@H](C(C)C)NC(=O)[C@H](CC2CCCCC2)NC(=O)[C@H](CCN)NC1=O` [Compound 3241] ({CH2CO}-RY(Carboxymethyl)DWV[Bip]V[Orn][dL][Dab][Cha]V[Dab]CG[AEEA][Orn][Aun]-OH; thioether N-14): 11.7 nM; `CC(C)C[C@H]1NC(=O)[C@H](CCCN)NC(=O)[C@H](C(C)C)NC(=O)[C@H](Cc2ccc(-c3ccccc3)cc2)NC(=O)[C@H](C(C)C)NC(=O)[C@H](Cc2c[nH]c3ccccc23)NC(=O)[C@H](CC(=O)O)NC(=O)[C@H](Cc2ccc(OCC(=O)O)cc2)NC(=O)[C@H](CCCNC(=N)N)NC(=O)CSC[C@@H](C(=O)NCC(=O)NCCOCCOCC(=O)N[C@@H](CCCN)C(=O)NCCCCCCCCCCC(=O)O)NC(=O)[C@H](CCN)NC(=O)[C@H](C(C)C)NC(=O)[C@H](CC2CCCCC2)NC(=O)[C@@H]2C[C@@H](N)CN2C1=O` [Compound 3242] ({CH2CO}-RY(Carboxymethyl)DWV[Bip]V[Orn][dL][Pro(4R-NH2)][Cha]V[Dab]CG[AEEA][Orn][Aun]-OH; thioether N-14): 700 nM; `CC(C)C[C@H]1NC(=O)[C@H](CCN)NC(=O)[C@H](C(C)C)NC(=O)[C@H](Cc2ccc(-c3ccccc3)cc2)NC(=O)[C@H](C(C)C)NC(=O)[C@H](Cc2c[nH]c3ccccc23)NC(=O)[C@H](CC(=O)O)NC(=O)[C@H](Cc2ccc(C(=O)O)cc2)NC(=O)[C@H](Cc2ccc(OCC(=O)O)cc2)NC(=O)CSC[C@@H](C(=O)N[C@@H](CCN)C(=O)NCCOCCOCC(=O)NCCCCCCCCCCC(=O)O)NC(=O)[C@H](CCCN)NC(=O)[C@H](C(C)C)NC(=O)[C@H](CC2CCCCC2)NC(=O)[C@H](CCN)NC1=O` [Compound 3243] ({CH2CO}-Y(Carboxymethyl)[Phe(4-COOH)]DWV[Bip]V[Dab][dL][Dab][Cha]V[Orn]C[Dab][AEEA][Aun]-OH; thioether N-14): 10.9 nM. With `Cc1cccc(C[C@@H]2NC(=O)[C@H](CC(=O)O)NC(=O)[C@H](Cc3ccc(OCC(=O)O)cc3)NC(=O)[C@H](CCCCNC(=N)N)NC(=O)CSC[C@@H](C(=O)N[C@@H](CCN)C(=O)NCCOCCOCC(=O)NCCCCCCCCCCC(=O)O)NC(=O)[C@H](CCCN)NC(=O)[C@H](C(C)C)NC(=O)[C@H](CC3CCCCC3)NC(=O)[C@H](CCN)NC(=O)[C@@H](CC(C)C)NC(=O)[C@H](CN)NC(=O)[C@H](C(C)C)NC(=O)[C@H](Cc3ccc(-c4ccccc4)cc3)NC(=O)[C@H](C(C)C)NC2=O)c1` [Compound 3244] ({CH2CO}-[hArg]Y(Carboxymethyl)D[Phe(3-Me)]V[Bip]V[Dap][dL][Dab][Cha]V[Orn]C[Dab][AEEA][Aun]-OH; thioether N-14), the IC50 stood at 10.9 nM. Next, `Cc1cccc(C[C@@H]2NC(=O)[C@H](CC(=O)O)NC(=O)[C@H](Cc3ccc(OCC(=O)O)cc3)NC(=O)[C@H](CCCCNC(=N)N)NC(=O)CSC[C@@H](C(=O)N[C@@H](CCN)C(=O)NCCOCCOCC(=O)NCCCCCCCCCCC(=O)O)NC(=O)[C@H](CCCN)NC(=O)[C@H](C(C)C)NC(=O)[C@H](CC3CCCCC3)NC(=O)[C@H](CCN)NC(=O)[C@@H](CC(C)C)NC(=O)[C@H](CCCN)NC(=O)[C@H](C(C)C)NC(=O)[C@H](Cc3ccc(-c4ccccc4)cc3)NC(=O)[C@H](C(C)C)NC2=O)c1` [Compound 3245] ({CH2CO}-[hArg]Y(Carboxymethyl)D[Phe(3-Me)]V[Bip]V[Orn][dL][Dab][Cha]V[Orn]C[Dab][AEEA][Aun]-OH; thioether N-14): 11 nM; `Cc1cccc(C[C@@H]2NC(=O)[C@H](CC(=O)O)NC(=O)[C@H](Cc3ccc(OCC(=O)O)cc3)NC(=O)[C@H](CCCCNC(=N)N)NC(=O)CSC[C@@H](C(=O)NCC(=O)NCCOCCOCC(=O)N[C@@H](CCN)C(=O)NCCCCCCCCCCC(=O)O)NC(=O)[C@H](CCCN)NC(=O)[C@H](C(C)C)NC(=O)[C@H](CC3CCCCC3)NC(=O)[C@H](CCN)NC(=O)[C@@H](CC(C)C)NC(=O)[C@H](CCCN)NC(=O)[C@H](C(C)C)NC(=O)[C@H](Cc3ccc(-c4ccccc4)cc3)NC(=O)[C@H](C(C)C)NC2=O)c1` [Compound 3246] ({CH2CO}-[hArg]Y(Carboxymethyl)D[Phe(3-Me)]V[Bip]V[Orn][dL][Dab][Cha]V[Orn]CG[AEEA][Dab][Aun]-OH; thioether N-14): 26.5 nM. Next, `Cc1cccc(C[C@@H]2NC(=O)[C@H](CC(=O)O)NC(=O)[C@H](Cc3ccc(OCC(=O)O)cc3)NC(=O)[C@H](CCCCNC(=N)N)NC(=O)CSC[C@@H](C(=O)N[C@@H](CCCN)C(=O)NCCCCCCCCCCC(=O)O)NC(=O)[C@H](CCCN)NC(=O)[C@H](C(C)C)NC(=O)[C@H](CC3CCCCC3)NC(=O)[C@H](CCN)NC(=O)[C@@H](CC(C)C)NC(=O)[C@H](CCCN)NC(=O)[C@H](C(C)C)NC(=O)[C@H](Cc3ccc(-c4ccccc4)cc3)NC(=O)[C@H](C(C)C)NC2=O)c1` [Compound 3247] ({CH2CO}-[hArg]Y(Carboxymethyl)D[Phe(3-Me)]V[Bip]V[Orn][dL][Dab][Cha]V[Orn]C[Orn][Aun]-OH; thioether N-14): 14.8 nM; `Cc1cccc(C[C@@H]2NC(=O)[C@H](CC(=O)O)NC(=O)[C@H](Cc3ccc(OCC(=O)O)cc3)NC(=O)[C@H](CCCCNC(=N)N)NC(=O)CSC[C@@H](C(=O)NCCOCCOCC(=O)N[C@@H](CCN)C(=O)NCCCCCCCCCCC(=O)O)NC(=O)[C@H](CCCN)NC(=O)[C@H](C(C)C)NC(=O)[C@H](CC3CCCCC3)NC(=O)[C@H](CCN)NC(=O)[C@@H](CC(C)C)NC(=O)[C@H](CCCN)NC(=O)[C@H](C(C)C)NC(=O)[C@H](Cc3ccc(-c4ccccc4)cc3)NC(=O)[C@H](C(C)C)NC2=O)c1` [Compound 3248] ({CH2CO}-[hArg]Y(Carboxymethyl)D[Phe(3-Me)]V[Bip]V[Orn][dL][Dab][Cha]V[Orn]C[AEEA][Dab][Aun]-OH; thioether N-14): 3.6 nM.
